The nature of data set [1]: Stability of the ligand in water. In kind it is physicochemical. The settings on record: free ligand versus metal-chelated ligand. The procedure:
The production of kits of ECDG, a water labile ligand, is problematic as the normal kit procedure includes a lyophilisation step in the aqueous phase wherein the pure ligand active pharmaceutical ingredient (API) is dissolved in water/saline containing at least one each of a reducing agent, additive and buffer, distributed in vials and freeze dried. At the hospital the ^99mTc in saline is added to the kit and reconstituted. The ^99mTc is then chelated to the ECDG ligand and the ^99mTc-ECDG radiopharmaceutical is ready for injection.

The conditions of data set [2]: aqueous medium in the published syntheses; cited from earlier work.

In the case of `O=C(NC1C(O)O[C@H](CO)[C@@H](O)[C@@H]1O)C1C[S][Tc]23(=[O])[S]C[C@@H](C(=O)NC4C(O)O[C@H](CO)[C@@H](O)[C@@H]4O)[N]2CC[N]13` (stereo partly drawn) [^99mTc-ECDG, ^99mTechnetium-ethylenedicysteine deoxyglucosamine], the stability in water entry in data set [1] is on record as “stable in water”. Regarding `O=C(NC1C(O)O[C@H](CO)[C@@H](O)[C@@H]1O)C(CS)NCCN[C@@H](CS)C(=O)NC1C(O)O[C@H](CO)[C@@H](O)[C@@H]1O` (stereo partly drawn) [ECDG, ethylenedicysteine deoxyglucosamine], in data set [1], the stability in water result was “breaks down in water almost immediately”. Moreover, the “sensitivity to air, light, water and temperature” value in data set [2] was “air, light, water and temperature sensitive”.

The values are drawn from patent US20160346412A1, “A KIT FOR PREPARING A RADIOPHARMACEUTICAL” (THE SOUTH AFRICAN NUCLEAR ENERGY CORPORATION LIMITED, priority 2014, published 2016).
